Results: PubChem BioAssay AID1259407 (Chemical Carcinogenesis Research Information System (CCRIS), 2018)
Calls of active or inactive are those of the source. The rule behind the calls is not given here.

System: CCRIS mutagenicity, Ames/micronucleus/aberration tests
Test: CCRIS mutagenicity studies
[1] = Test System: AMES SALMONELLA TYPHIMURIUM, Strain/Indicator: TA98, Metabolic Activation: NONE, Method: STANDARD PLATE
[2] = Test System: AMES SALMONELLA TYPHIMURIUM, Strain/Indicator: TA100, Metabolic Activation: NONE, Method: STANDARD PLATE
[3] = Test System: AMES SALMONELLA TYPHIMURIUM, Strain/Indicator: TA100, Metabolic Activation: NONE, Method: PREINCUBATION
[4] = Test System: AMES SALMONELLA TYPHIMURIUM, Strain/Indicator: TA98, Metabolic Activation: NONE, Method: PREINCUBATION
[5] = Test System: AMES SALMONELLA TYPHIMURIUM, Strain/Indicator: TA1535, Metabolic Activation: NONE, Method: PREINCUBATION
[6] = Test System: AMES SALMONELLA TYPHIMURIUM, Strain/Indicator: TA1537, Metabolic Activation: NONE, Method: PREINCUBATION
[7] = Test System: AMES SALMONELLA TYPHIMURIUM, Strain/Indicator: TA100, Metabolic Activation: RAT, LIVER, S-9, AROCLOR 1254, Method: PREINCUBATION

Structure (SMILES): O=c1[nH]cnc2c1ncn2[C@H]1CC[C@@H](CO)O1
- mutagenic call (Test System: AMES SALMONELLA TYPHIMURIUM, Strain/Indicator: TA98, Metabolic Activation: HAMSTER, LIVER, S-9, AROCLOR 1254, Method: STANDARD PLATE): inactive; negative
- mutagenic call [1]: inactive; negative
- mutagenic call (Test System: AMES SALMONELLA TYPHIMURIUM, Strain/Indicator: TA98, Metabolic Activation: RAT, LIVER, S-9, AROCLOR 1254, Method: STANDARD PLATE): inactive; negative
- mutagenic call (Test System: AMES SALMONELLA TYPHIMURIUM, Strain/Indicator: TA100, Metabolic Activation: HAMSTER, LIVER, S-9, AROCLOR 1254, Method: STANDARD PLATE): inactive; negative
- mutagenic call [2]: inactive; negative
- mutagenic call (Test System: AMES SALMONELLA TYPHIMURIUM, Strain/Indicator: TA100, Metabolic Activation: RAT, LIVER, S-9, AROCLOR 1254, Method: STANDARD PLATE): inactive; negative
- mutagenic call (Test System: AMES SALMONELLA TYPHIMURIUM, Strain/Indicator: TA1535, Metabolic Activation: HAMSTER, LIVER, S-9, AROCLOR 1254, Method: STANDARD PLATE): inactive; negative
- mutagenic call (Test System: AMES SALMONELLA TYPHIMURIUM, Strain/Indicator: TA1535, Metabolic Activation: NONE, Method: STANDARD PLATE): inactive; negative
- mutagenic call (Test System: AMES SALMONELLA TYPHIMURIUM, Strain/Indicator: TA1535, Metabolic Activation: RAT, LIVER, S-9, AROCLOR 1254, Method: STANDARD PLATE): inactive; negative
- mutagenic call (Test System: AMES SALMONELLA TYPHIMURIUM, Strain/Indicator: TA1537, Metabolic Activation: HAMSTER, LIVER, S-9, AROCLOR 1254, Method: STANDARD PLATE): inactive; negative
- mutagenic call (Test System: AMES SALMONELLA TYPHIMURIUM, Strain/Indicator: TA1537, Metabolic Activation: NONE, Method: STANDARD PLATE): inactive; negative
- mutagenic call (Test System: AMES SALMONELLA TYPHIMURIUM, Strain/Indicator: TA1537, Metabolic Activation: RAT, LIVER, S-9, AROCLOR 1254, Method: STANDARD PLATE): inactive; negative
- mutagenic call (Test System: AMES SALMONELLA TYPHIMURIUM, Strain/Indicator: TA1538, Metabolic Activation: HAMSTER, LIVER, S-9, AROCLOR 1254, Method: STANDARD PLATE): inactive; negative
- mutagenic call (Test System: AMES SALMONELLA TYPHIMURIUM, Strain/Indicator: TA1538, Metabolic Activation: NONE, Method: STANDARD PLATE): inactive; negative
- mutagenic call (Test System: AMES SALMONELLA TYPHIMURIUM, Strain/Indicator: TA1538, Metabolic Activation: RAT, LIVER, S-9, AROCLOR 1254, Method: STANDARD PLATE): inactive; negative
- mutagenic call (Test System: HUMAN B LYMPHOBLASTOID CELLS, Strain/Indicator: TK6 CELL (HPRT)/6-THIOGUANINE, Metabolic Activation: NONE, Method: SUSPENSION/PLATE): active; positive
- mutagenic call (Test System: HUMAN B LYMPHOBLASTOID CELLS, Strain/Indicator: TK6 CELL (TK+/-)/TRIFLUOROTHYMIDINE, Metabolic Activation: NONE, Method: SUSPENSION/PLATE): active; positive

Structure (SMILES): O=[N+]([O-])c1c(Cl)c(Cl)c2c(c1Cl)Oc1cc(Cl)c(Cl)cc1O2
- mutagenic call [1]: active; positive
- mutagenic call (Test System: AMES SALMONELLA TYPHIMURIUM, Strain/Indicator: TA98, Metabolic Activation: RAT, LIVER, S-9, AROCLOR, Method: STANDARD PLATE): active; positive
- mutagenic call [2]: inactive; negative
- mutagenic call (Test System: AMES SALMONELLA TYPHIMURIUM, Strain/Indicator: TA100, Metabolic Activation: RAT, LIVER, S-9, AROCLOR, Method: STANDARD PLATE): active; positive

Structure (SMILES): CC\C=C/C=C\C=C/C=C\C=C/OCC(C)O (stereo not drawn)
- mutagenic call [3]: active; positive

Structure (SMILES): Cc1ccc(NC(N)=O)cc1
- mutagenic call (Test System: AMES SALMONELLA TYPHIMURIUM, Strain/Indicator: TA98, Metabolic Activation: HAMSTER, LIVER, S-9, AROCLOR 1254 (10%), Method: PREINCUBATION): inactive; negative
- mutagenic call [4]: inactive; negative
- mutagenic call (Test System: AMES SALMONELLA TYPHIMURIUM, Strain/Indicator: TA98, Metabolic Activation: RAT, LIVER, S-9, AROCLOR 1254 (10%), Method: PREINCUBATION): inactive; negative
- mutagenic call (Test System: AMES SALMONELLA TYPHIMURIUM, Strain/Indicator: TA100, Metabolic Activation: HAMSTER, LIVER, S-9, AROCLOR 1254 (10%), Method: PREINCUBATION): inactive; negative
- mutagenic call [3]: inactive; negative
- mutagenic call (Test System: AMES SALMONELLA TYPHIMURIUM, Strain/Indicator: TA100, Metabolic Activation: RAT, LIVER, S-9, AROCLOR 1254 (10%), Method: PREINCUBATION): inactive; negative
- mutagenic call (Test System: AMES SALMONELLA TYPHIMURIUM, Strain/Indicator: TA1535, Metabolic Activation: HAMSTER, LIVER, S-9, AROCLOR 1254 (10%), Method: PREINCUBATION): inactive; negative
- mutagenic call [5]: inactive; negative
- mutagenic call (Test System: AMES SALMONELLA TYPHIMURIUM, Strain/Indicator: TA1535, Metabolic Activation: RAT, LIVER, S-9, AROCLOR 1254 (10%), Method: PREINCUBATION): inactive; negative
- mutagenic call (Test System: AMES SALMONELLA TYPHIMURIUM, Strain/Indicator: TA1537, Metabolic Activation: HAMSTER, LIVER, S-9, AROCLOR 1254 (10%), Method: PREINCUBATION): inactive; negative
- mutagenic call [6]: inactive; negative
- mutagenic call (Test System: AMES SALMONELLA TYPHIMURIUM, Strain/Indicator: TA1537, Metabolic Activation: RAT, LIVER, S-9, AROCLOR 1254 (10%), Method: PREINCUBATION): inactive; negative

Structure (SMILES): COc1cc(O)c2c(=O)c3cc(O)ccc3oc2c1
- mutagenic call (Test System: AMES SALMONELLA TYPHIMURIUM, Strain/Indicator: TA97, Metabolic Activation: RAT, LIVER, S-9, PHENOBARBITAL AND 5,6-BENZOFLAVONE, Method: PREINCUBATION): active; positive
- mutagenic call (Test System: AMES SALMONELLA TYPHIMURIUM, Strain/Indicator: TA98, Metabolic Activation: RAT, LIVER, S-9, PHENOBARBITAL AND 5,6-BENZOFLAVONE, Method: PREINCUBATION): inactive; negative
- mutagenic call (Test System: AMES SALMONELLA TYPHIMURIUM, Strain/Indicator: TA100, Metabolic Activation: RAT, LIVER, S-9, PHENOBARBITAL AND 5,6-BENZOFLAVONE, Method: PREINCUBATION): inactive; negative
- mutagenic call (Test System: AMES SALMONELLA TYPHIMURIUM, Strain/Indicator: TA2637, Metabolic Activation: RAT, LIVER, S-9, 5,6-BENZOFLAVONE AND/OR SODIUM PHENOBARBITAL, Method: PREINCUBATION): active; positive
- mutagenic call (Test System: AMES SALMONELLA TYPHIMURIUM, Strain/Indicator: TA2637, Metabolic Activation: RAT, LIVER, S-9, PHENOBARBITAL AND 5,6-BENZOFLAVONE, Method: PREINCUBATION): active; positive
- mutagenic call (Test System: AMES SALMONELLA TYPHIMURIUM, Strain/Indicator: TA2637, Metabolic Activation: RAT, LIVER, S-105, 5,6-BENZOFLAVONE AND/OR SODIUM PHENOBARBITAL, Method: PREINCUBATION): inactive; negative

Structure (SMILES): Oc1ccc2c3ccccc3c3cc4ccccc4cc3c2c1
- mutagenic call [7]: active; positive

Structure (SMILES): Oc1cc2c(cc1O)[C@@H]1c3ccc(O)c(O)c3OC[C@]1(O)C2
- mutagenic call (Test System: AMES SALMONELLA TYPHIMURIUM, Strain/Indicator: TA98, Metabolic Activation: HAMSTER, LIVER, S-9, AROCLOR 1254, Method: PREINCUBATION): inactive; negative
- mutagenic call [4]: inactive; negative
- mutagenic call (Test System: AMES SALMONELLA TYPHIMURIUM, Strain/Indicator: TA98, Metabolic Activation: RAT, LIVER, S-9, AROCLOR 1254, Method: PREINCUBATION): inactive; negative
- mutagenic call (Test System: AMES SALMONELLA TYPHIMURIUM, Strain/Indicator: TA100, Metabolic Activation: HAMSTER, LIVER, S-9, AROCLOR 1254, Method: PREINCUBATION): inactive; negative
- mutagenic call [3]: inactive; negative
- mutagenic call [7]: inactive; negative
- mutagenic call (Test System: AMES SALMONELLA TYPHIMURIUM, Strain/Indicator: TA1535, Metabolic Activation: HAMSTER, LIVER, S-9, AROCLOR 1254, Method: PREINCUBATION): inactive; negative
- mutagenic call [5]: inactive; negative
- mutagenic call (Test System: AMES SALMONELLA TYPHIMURIUM, Strain/Indicator: TA1535, Metabolic Activation: RAT, LIVER, S-9, AROCLOR 1254, Method: PREINCUBATION): inactive; negative
- mutagenic call (Test System: AMES SALMONELLA TYPHIMURIUM, Strain/Indicator: TA1537, Metabolic Activation: HAMSTER, LIVER, S-9, AROCLOR 1254, Method: PREINCUBATION): inactive; negative
- mutagenic call [6]: inactive; negative
- mutagenic call (Test System: AMES SALMONELLA TYPHIMURIUM, Strain/Indicator: TA1537, Metabolic Activation: RAT, LIVER, S-9, AROCLOR 1254, Method: PREINCUBATION): inactive; negative
